Assay results: PMC8333425, “Discovery of a dual Ras and ARF6 inhibitor from a GPCR endocytosis screen” (Nature Communications, 2021)
Values joined by “and” are separate entries in the source; they are usually repeats but may differ in a detail not shown here. Identical values can stand only once.

Assays:
ERK1/2 activation by B2R = test: Western blot of B2R-mediated ERK1/2 phosphorylation; format: cell-based, human; conditions: for p-ERK1/2 over ERK1/2, normalized to basal (0 min), B2R: Comp 21 50 μM, individual experiments
Description: HEK293SL cells (10^5 cells per well) were seeded in a poly-L-lysine-coated six-well plate and transiently transfected with 3 μg Flag-AT1R, HA-B2R or HA-β2AR and/or 500 ng Flag-MEK1-WT, Flag-MEK1-DD, Flag-BRAF-WT, Flag-BRAF-V600E, Flag-K-Ras-WT, Flag-K-Ras-G12V, HA-ARF6-WT, or HA-ARF6-T27N. Gαq/11 KO and βarr1/2 KO cells were seeded onto 100 mm dishes at a density of 10^6 cells per dish. Next day, cells were transfected with 3 μg AT1R alone or along with 500 ng of β-arrestin2 using PEI. After 18 h of transfection, cells were detached and re-seeded onto poly-L-lysine coated 12-well plates (~1.5–2 × 10^5cells/well) for subsequent experiments. Forty-eight hours post transfection, in a 37 °C water bath, cells were serum-starved for 30 min, pretreated with DMSO (0.1%) or compound 21/Rasarfin (50 µM or at indicated concentrations) for 30 min, then stimulated or not with the indicated ligand [AngII (1 µM), BK (1 µM), Iso (10 µM) or EGF (100 ng/ml)] at indicated times. Cells were put on ice, washed with PBS and solubilized in 2x laemmli buffer (250 mM Tris–HCl pH 6.8, 2% SDS (w/v), 10% glycerol (v/v), 0.01% bromophenol blue (w/v) and 5% β-mercaptoethanol (v/v)) by heating at 65 °C for 15 min. Lysates were resolved on 10 or 14% SDS-PAGE, transferred to nitrocellulose membranes and immunoblotted for p-ERK1/2, ERK1/2, p-Akt, Akt, HA, Myc, β-actin or FLAG. ImageLab 5.2 software was used to quantify the digital blots as fold of the phosphorylated protein over total protein, which were then normalized as indicated in the figure legends. Uncropped immunoblots are provided in the Source Data file.

[1] = test system: β-arrestin2 recruitment to AT1R; test: BRET recruitment of β-arrestin2 to AT1R; format: cell-based, human; conditions: for AngII-promoted BRET, β-arrestin2 (Barr2) recruitment to AT1R: Comp 21 50 μM, individual experiments
Description: HEK293SL cells were seeded at a density of 7.5 × 10^5 cells per 100-mm dish and 24 h later, transiently transfected as such. For receptor internalization experiments, cells were transfected with 0.12 μg AT1R-RlucII, B2R-RlucII, or β2AR-RlucII and 0.48 μg of either rGFP-CAAX (to assess removal from the PM) or rGFP-FYVE (to assess accumulation in the endosomes). For β-arrestin recruitment assays, cells were transfected with 0.48 μg of receptor-YFP along with 0.12 μg of β-arrestin-RlucII. For β-arrestin/AP-2 binding experiments, cells were transfected with 1 μg Flag-AT1R, 1 μg β2-Adaptin-YFP, and 0.12 μg β-arrestin2-RlucII. For G protein activation, cells were transfected with 3 μg of sp-Flag-AT1R along with either 4.5 μg of the Gαq-polycistronic BRET sensor or 0.24 μg of the Gαi3-RlucII and 0.6 μg of GFP10-Gγ2 and Gβ1 sensors or 0.12 μg PKN-RBD-RlucII and 0.48 μg of rGFP-CAAX. For PKC activation, cells were transfected with 3 μg of sp-Flag-AT1R and 0.18 μg of the PKC sensor. For GTPase activation experiments, cells were transfected with 1 μg Flag-AT1R, 0.48 μg of rGFP-CAAX, and either 0.12 μg of GGA3-PBD-RlucII, PAK-CRIB-RlucII or Raf-RBD-RlucII. For biosensor validation experiments, cells were additionally transfected with 500 ng Flag-K-Ras-WT, Flag-K-Ras-G12V, Flag-K-Ras-SOS-CAAX, HA-ARF6-WT, HA-ARF6-T27N, Myc-Rac1-WT, Myc-Rac1-Q61L or Myc-Rac1-T17N. For PI3K/Akt activation experiments, cells were transfected with 0.48 μg of rGFP-CAAX and 0.12 μg of Akt (PH)-RlucII. After 18 h of transfection, the media was replaced and cells were divided for subsequent experiments. Cells were detached and seeded onto poly-L-ornithine-coated 96-well flat white bottom plates (BrandTech Scientific) at a density of 2.5 × 10^4 cells per well in media. The next day, cells were washed once with Tyrode’s buffer (140 mM NaCl, 2.7 mM KCl, 1 mM CaCl2, 12 mM NaHCO3, 5.6 mM D-glucose, 0.5 mM MgCl2, 0.37 mM NaH2PO4, 25 mM HEPES, pH 7.4) and left in Tyrode’s buffer. For kinetics of β-arrestin recruitment or β-arrestin binding to receptor and AP-2 experiments, cells were serum starved for 30 min, pretreated with 21 (50 µM) or Barbadin (100 µM) for 30 min, stimulated with 100 nM AngII or 1 µM BK and BRET signals were monitored at indicated times using a Victor X Light plate reader (PerkinElmer). Coelenterazine H (final concentration of 5 µM) was added 3–5 min prior to BRET measurements. Filter set was 460/80 nm and 535/30 nm for detecting the RlucII Renilla luciferase (donor) and YFP (acceptor) light emissions, respectively. The BRET ratio was determined by calculating the ratio of the light emitted by YFP over the light emitted by the RlucII. For G protein activation, cells were serum starved, pretreated with compounds for 30 min, stimulated with 100 nM AngII for 2 min (Gαq, Gαi3, and Rho sensors) or 5 min (PKC sensor). For the kinetics of GTPase and PI3K/Akt activation, cells were serum starved, pretreated with 21 (50 µM) or Wortmannin (200 nM) for 30 min, stimulated with ligand (100 nM AngII or 100 ng/ml EGF) and BRET signals were monitored at indicated times. For concentration-response curves, cells were serum-starved, pretreated with various concentrations of compounds for 30 min and stimulated with ligand (100 nM AngII, 1 µM BK, 10 µM Isoproterenol (Iso) or 100 ng/ml EGF) in Tyrode’s buffer for 30 min for receptor internalization, 10 min for ARF6, 2 min for Rac and Rho activation and 5 min for Ras activation and PI3K/Akt activation. BRET signals were monitored using a Synergy2 (BioTek) microplate reader and coelenterazine 400a (final concentrations of 5 µM) added 3–5 min prior to BRET measurements. Filter set was 410/80 nm and 515/30 nm for detecting the RlucII Renilla luciferase (donor) and rGFP/GFP10 (acceptor) light emissions, respectively. The BRET ratio was determined by calculating the ratio of the light emitted by rGFP/GFP10 over the light emitted by the RlucII.

**Q.** Which “MAPK response promoted by B2R” value (ERK1/2 activation by B2R; 50 μM) does the source give for `CC(C)C(=O)N1CCN(c2ccc(NC(=O)c3cc4ccccc4o3)cc2Cl)CC1` [Compound 21] here?
**A.** The value was “blocked MAPK responses”.

**Q.** What about the “p-ERK1/2 over ERK1/2, normalized to basal (0 min), B2R” value (from here on “p-ERK1/2 over ERK1/2, normalized”) (ERK1/2 activation by B2R; time 0 min) of the same molecule?
**A.** Its value is 1 (3×) and 1.039.

**Q.** And the “p-ERK1/2 over ERK1/2, normalized” value (ERK1/2 activation by B2R; time 2 min)?
**A.** The value was 1.954 and 3.081 and 1.486 and 1.1152.

**Q.** And the “p-ERK1/2 over ERK1/2, normalized” value (ERK1/2 activation by B2R; time 5 min)?
**A.** Its value is 0.9797 and 0.9619 and 1.157 and 1.051.

**Q.** And the “β-arrestin2 recruitment to AT1R at the PM” value ([1]; 50 μM)?
**A.** The value was “did not preclude”.

**Q.** What about the “AngII-promoted BRET, β-arrestin2 (Barr2) recruitment to AT1R” value (“AngII-promoted BRET, β-arrestin2” for short) ([1]; time 0 min) of the same molecule?
**A.** Its value is 0.

**Q.** What about the “AngII-promoted BRET, β-arrestin2” value ([1]; time 5 min) of the same molecule?
**A.** Its value is 0.1545 and 0.1824 and 0.1119.

**Q.** What about the “AngII-promoted BRET, β-arrestin2” value ([1]; time 10 min) of the same molecule?
**A.** The value was 0.1572 and 0.2061 and 0.1651.

**Q.** What about the “AngII-promoted BRET, β-arrestin2” value ([1]; time 15 min) of the same molecule?
**A.** Its value is 0.1598 and 0.2035 and 0.1848.

**Q.** And the “AngII-promoted BRET, β-arrestin2” value ([1]; time 30 min)?
**A.** Its value is 0.165 and 0.1904 and 0.1659.

**Q.** What about the “AngII-promoted BRET, β-arrestin2” value ([1]; time 60 min) of the same molecule?
**A.** Its value is 0.1705 and 0.209 and 0.1941.
